# Like-named read-outs stand apart in the source and are kept apart here. Starred links: 1 amine or outer side, 2 acyl side, 3 side chain; linkers in the order of their positions; H or OH if unused. Positions of bridges follow the written chain, without caps; N, C: chain ends. Non-standard residues stand in square brackets, D forms with d. Residues, ends and D or L forms follow the SMILES beside them. *: point of attachment. X3 = CN(CCCCC(=O)N[C@@H](CS[*:2])C(=O)[*:1])[*:3]; 2Nal = N[C@@H](Cc1ccc2ccccc2c1)C(=O)O; AEF = NCCOc1ccc(C[C@H](N)C(=O)O)cc1; αMeL = CC(C)C[C@](C)(N)C(=O)O; Thp = NC1(C(=O)O)CCOCC1; Me2NCH2CH2 = CN(C)CC*; Aib = CC(C)(N)C(=O)O; Ahx = NCCCCCC(=O)O; Ava = NCCCCC(=O)O
# Legend:
# [1] = biological target: T1, human interleukin-23 receptor (recombinant human IL-23R-Fc chimera) (Homo sapiens, UniProt Q5VWK5); experiment: Human ELISA IL23/IL23R (assay for specific human IL23R antagonists); type: binding; conditions: Table 10; read-out: Human ELISA IL23/IL23R IC50
# T1 construct: Fc (IgG Fc fusion)
# Summary of the method: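 Competition format: peptide dilutions compete for IL23R-Fc chimera (0.1 μg/ml final, 60 min, room temperature) binding to immobilized human IL23 coated at […] overnight at 4 °C. Read-out is fluorogenic HRP signal from goat anti-hu-IgG1 detecting captured receptor.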
# Pancreatin = experiment: Protease stability in simulated intestinal fluid (Pancreatin-SIF, FaSSIF); type: in vitro ADME; conditions: 1 μM peptide, 37° C.; for remaining at 1 h, 1 µM: 60 min, read-out: FaSSIF 60 (min), remaining percent of peptide; for remaining at 2 h, 1 µM: 120 min, read-out: FaSSIF 120 (min), remaining percent of peptide; for remaining at 4 h, 1 µM: 240 min, read-out: FaSSIF 240 (min), remaining percent of peptide
# Summary of the method: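 LC-MS/MS peak areas at 0, 60, 120 and 240 min, normalised to time 0 as 100%, give percent remaining. Reactions used 1 μM final peptide at 37° C in pancreatin-SIF (1 mg pancreatin in 10 mL SIF concentrate) and were stopped with ethanol containing 0.1% HCOOH.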
# [2] = Chemical stability assessment of peptides (relative purity loss); type: physicochemical; conditions: 24 hours at 37° C.; for Chemical stability (relative purity loss) Buffer pH 1.2: 50 mM HCl pH 1.2 + acetonitrile (1:1); for Chemical stability (relative purity loss) Buffer pH 6.5: 50 mM phosphate buffer pH 6.5 + acetonitrile (1:1); for Chemical stability (relative purity loss) Buffer pH 7.4: 50 mM phosphate buffer pH 7.4 + acetonitrile (1:1)
# Summary of the method: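 Peptide solutions at 1 mg/ml (purity-corrected) in 1:1 acetonitrile with 50 mM HCl pH 1.2, or 50 mM phosphate pH 6.5 or pH 7.4, held 24 hours at 2° C. and 37° C. Supernatants analysed by UHPLC-UV; relative purity loss taken as percent drop in peak-area purity from 0 to 24 hours at 37° C.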
# [3] = Solubility testing of peptides at different pH; type: physicochemical; conditions: target concentration 1 mg/ml, 2 hours agitation
# Summary of the method: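 Four buffers were used: 50 mM HCl pH 1.2 and 50 mM phosphate at pH 6.5, 7.4 and 9.0, each receiving dried-down compound at a 1 mg/mL target. After 2 h gentle shaking and 0.45 μm filtration, UV peak areas were compared with a DMSO standard curve of known concentration, allowing for extinction coefficients.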
# Pepsin = tested on: T2, Pepsin; experiment: Protease stability in simulated gastric fluid (Pepsin-SGF, FaSSGF); type: in vitro ADME; conditions: simulated gastric fluid with pepsin (Pepsin-SGF), 60 min, 1 μM peptide, 37° C., read-out: FaSSGF 60 (min), remaining percent of peptide
# T2 construct: purchased Merck Millipore
# Summary of the method: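 LCMS/MS peak areas, normalised to the time-0 sample as 100%, give percent remaining. Conditions: 37° C incubation of 1 μM final peptide in simulated gastric fluid with pepsin; ethanol/0.1% HCOOH quench at 0, 60, 120, 240 min.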
# [4] = 50 mM HCl buffer, 50 mM HCl pH 1.2, read-out: Solubility Buffer pH 1.2
# [5] = 50 mM phosphate buffer pH 6.5, read-out: Solubility Buffer pH 6.5
# [6] = 50 mM phosphate buffer pH 7.4, read-out: Solubility Buffer pH 7.4
# [7] = 50 mM phosphate buffer pH 9.0, read-out: Solubility Buffer pH 9.0
SMILES,IC50 [1],"remaining at 1 h, 1 µM (Pancreatin)","remaining at 2 h, 1 µM (Pancreatin)","remaining at 4 h, 1 µM (Pancreatin)",Chemical stability (relative purity loss) Buffer pH 1.2 [2],Chemical stability (relative purity loss) Buffer pH 6.5 [2],Chemical stability (relative purity loss) Buffer pH 7.4 [2],"solubility at 2 h [3, 4]","solubility at 2 h [3, 5]","solubility at 2 h [3, 6]","solubility at 2 h [3, 7]","remaining at 1 h, 1 µM (Pepsin)"
COc1ccc(C[C@@H]2NC(=O)[C@@H]3CSSC[C@H](NC(=O)CCCCNC(=O)CC[C@@H](C(=O)N[C@@H](CC(N)=O)C(=O)NCC(N)=O)NC(=O)C(C)(C)NC(=O)[C@H](Cc4ccc5ccccc5c4)NC2=O)C(=O)N[C@@H](CC(N)=O)C(=O)N[C@@H]([C@@H](C)O)C(=O)N[C@@H](Cc2c[nH]c4ccccc24)C(=O)N[C@@H](CCC(N)=O)C(=O)N3)cc1 [compound 4] ([Ava]CNTWQCY(Me)[2Nal][Aib]ENG-NH2; disulfide 2-7; lactam N-11),0.95 nM,91%,82%,73%,22.4%,0.7%,7.0%,30 µg/mL,20 µg/mL,20 µg/mL,10 µg/mL,1%
CC(C)C[C@@H](NC(=O)[C@H](CC(N)=O)NC(=O)[C@@H]1CCC(=O)NCCCCC(=O)N[C@H]2CSSC[C@H](NC(=O)[C@H](CCC(N)=O)NC(=O)[C@H](Cc3c[nH]c4ccccc34)NC(=O)[C@H]([C@@H](C)O)NC(=O)[C@H](CC(N)=O)NC2=O)C(=O)N[C@@H](Cc2ccc(OCCN(C)C)cc2)C(=O)N[C@@H](Cc2ccc3ccccc3c2)C(=O)N[C@@](C)(CC(C)C)C(=O)N1)C(N)=O [compound 10] ([Ava]CNTWQCY(Me2NCH2CH2)[2Nal][αMeL]EN[dL]-NH2; disulfide 2-7; lactam N-11),0.58 nM,84%,81%,80%,6.7%,0.1%,0.4%,< 10 µg/mL,70 µg/mL,10 µg/mL,< 10 µg/mL,77%
COc1ccc(C[C@@H]2NC(=O)[C@@H]3CSSC[C@H](NC(=O)CCC(=O)NCCCC[C@@H](C(=O)N[C@@H](CC(N)=O)C(=O)N[C@@H](CC(N)=O)C(N)=O)NC(=O)C(C)(C)NC(=O)[C@H](Cc4ccc5ccccc5c4)NC2=O)C(=O)N[C@@H](CC(N)=O)C(=O)N[C@@H]([C@@H](C)O)C(=O)N[C@@H](Cc2c[nH]c4ccccc24)C(=O)N[C@@H](CCC(N)=O)C(=O)N3)cc1 [compound 11],0.7 nM,80%,76%,65%,25.7%,0.2%,1.0%,120 µg/mL,100 µg/mL,90 µg/mL,80 µg/mL,2%
CC(=O)N[C@H]1CCCCNC(=O)[C@@H]2CSSC[C@H](NC(=O)[C@H](CCC(N)=O)NC(=O)[C@H](Cc3c[nH]c4ccccc34)NC1=O)C(=O)N[C@@H](Cc1ccc(OCCN)cc1)C(=O)N[C@@H](Cc1ccc3ccccc3c1)C(=O)NC(C)(C)C(=O)N[C@H](C(=O)N[C@@H](CC(N)=O)C(=O)N[C@@H](CC(N)=O)C(N)=O)CCC(=O)N(C)CCCCC(=O)N2 [compound 12] (Ac-KWQC[AEF][2Nal][Aib]ENN-NH2; linker 1-4-8 via X3),0.59 nM,74%,59%,41%,24.5%,1.1%,3.6%,310 µg/mL,290 µg/mL,190 µg/mL,110 µg/mL,53%
CC(=O)N[C@H]1CCCCNC(=O)[C@@H]2CSSC[C@H](NC(=O)[C@H](CCC(N)=O)NC(=O)[C@H](Cc3c[nH]c4ccccc34)NC1=O)C(=O)N[C@@H](Cc1ccc(OCCN)cc1)C(=O)N[C@@H](Cc1ccc3ccccc3c1)C(=O)NC1(CCOCC1)C(=O)N[C@H](C(=O)N[C@@H](CC(N)=O)C(=O)N[C@@H](CC(N)=O)C(N)=O)CCC(=O)N(C)CCCCC(=O)N2 [compound 13] (Ac-KWQC[AEF][2Nal][Thp]ENN-NH2; linker 1-4-8 via X3),0.61 nM,83%,70%,54%,23.3%,0.2%,1.6%,≥ 1050 µg/mL,≥ 1070 µg/mL,770 µg/mL,≥ 990 µg/mL,73%

# The next compounds have a lower IC50 [1] than those just listed; values first:
IC50 [1],"remaining at 1 h, 1 µM (Pancreatin)","remaining at 2 h, 1 µM (Pancreatin)","remaining at 4 h, 1 µM (Pancreatin)",Chemical stability (relative purity loss) Buffer pH 1.2 [2],Chemical stability (relative purity loss) Buffer pH 6.5 [2],Chemical stability (relative purity loss) Buffer pH 7.4 [2],"solubility at 2 h [3, 4]","solubility at 2 h [3, 5]","solubility at 2 h [3, 6]","solubility at 2 h [3, 7]","remaining at 1 h, 1 µM (Pepsin)",SMILES
0.44 nM,102%,100%,85%,13.8%,5.5%,19.8%,≥ 1040 µg/mL,≥ 1060 µg/mL,≥ 960 µg/mL,750 µg/mL,2%,C[C@@H](O)[C@@H]1NC(=O)[C@H](CC(N)=O)NC(=O)[C@@H]2CSSC[C@H](NC(=O)[C@H](CCC(N)=O)NC(=O)[C@H](Cc3c[nH]c4ccccc34)NC1=O)C(=O)N[C@@H](Cc1ccc(OCCN)cc1)C(=O)N[C@@H](Cc1ccc3ccccc3c1)C(=O)NC(C)(C)C(=O)N[C@H](C(=O)N[C@@H](CC(N)=O)C(=O)NCC(N)=O)CC(=O)NCCCCCC(=O)N2 [compound 9] ([Ahx]CNTWQC[AEF][2Nal][Aib]DNG-NH2; disulfide 2-7; lactam N-11)
0.36 nM,83%,68%,49%,25.8%,0.6%,0.1%,50 µg/mL,30 µg/mL,20 µg/mL,< 10 µg/mL,72%,CC(=O)N[C@H]1CCCCNC(=O)[C@@H]2CSSC[C@H](NC(=O)[C@H](CCC(N)=O)NC(=O)[C@H](Cc3c[nH]c4ccccc34)NC1=O)C(=O)N[C@@H](Cc1ccc(OCCN)cc1)C(=O)N[C@@H](Cc1ccc3ccccc3c1)C(=O)N[C@@](C)(CC(C)C)C(=O)N[C@H](C(=O)N[C@@H](CC(N)=O)C(=O)N[C@@H](CC(N)=O)C(N)=O)CCC(=O)N(C)CCCCC(=O)N2 [compound 14] (Ac-KWQC[AEF][2Nal][αMeL]ENN-NH2; linker 1-4-8 via X3)
0.2 nM,81%,65%,43%,14.3%,2.9%,5.1%,≥ 970 µg/mL,≥ 960 µg/mL,≥ 910 µg/mL,670 µg/mL,30%,CC(=O)N[C@H]1CCCCNC(=O)[C@@H]2CSSC[C@H](NC(=O)[C@H](CCC(N)=O)NC(=O)[C@H](Cc3c[nH]c4ccccc34)NC1=O)C(=O)N[C@@H](Cc1ccc(OCCN)cc1)C(=O)N[C@@H](Cc1ccc3ccccc3c1)C(=O)NC(C)(C)C(=O)N[C@H](C(=O)N[C@@H](CC(N)=O)C(=O)NCC(N)=O)CCC(=O)N(C)CCCCC(=O)N2 [compound 15] (Ac-KWQC[AEF][2Nal][Aib]ENG-NH2; linker 1-4-8 via X3)
